Laboratory results reported in US12692274B2, “Tetrahydroisoquinoline derivatives for the treatment of red blood disorders and inflammatory diseases” (Sanofi, priority 2020, dated 2026).
Values joined by “and” are separate entries in the source; they are usually repeats but may differ in a detail not shown here. Equal values may be shown once.

Tests used:
[1] = molecular target: HIS-Keap1 full length / Biotin-Nrf2 (16-mer) (Homo sapiens, UniProt Q14145); test: biochemical
[2] = test system: NQO1 activation in BEAS-2B cells; test: BEAS-2B cellular MTT assay of NQO1 activation, 0% HSA; assay type: cell-based
Protocol: (§1) The growth rate of the BEAS-2B cells changed based on the lot of BEGM SingleQuots in the BEGM media. The cell growth rate was determined for each lot of SingleQuots. Ideally, cells were thawed into media with the new lot of SingleQuots and grown for two passages before testing; however, growing an active culture in the new lot of media for two to three passages before testing was also acceptable. Until the cell growth rate was determined, cells were seeded at different densities (cells/cm^2) in multiple tissue culture flasks in order to avoid the cells becoming more than 70% confluent. Cells should not go above 70% confluent as the cells differentiate when they become confluent. After the cells were grown in the new lot of media as described above, the number of cells per well needed to seed in the collagen plates was determined by seeding different numbers of cells per well and incubating for 48 hours. Cell confluency was checked after 48 hours and a cell number that results in just below to just above confluency was chosen for future plate seeding. Cell confluency in the assay plate was 95-100% confluent after 48 hours.
(§2) Cell media consists of BEBM basal media with the BEGM SingleQuots added. SingleQuots vials were thawed in the tissue culture hood, and GA-1000 (Gentamicin-Amphotericin) was not added.
(§3) If complete media was to be used immediately, BEBM basal media was warmed to room temperature in the hood, but not as high as 37° C. When the media was made for future use, SingleQuots were added to cold BEBM. One at a time, the SingleQuots components (except GA-1000) were added to the BEBM media. After removal of each component from the vial, the vial was rinsed with 0.5-1 mL of BEBM (depending on the volume the vial could hold) and added to the bottle of BEBM. Once all components were added, the label that comes with the SingleQuots kit was put on the bottle of media and the date was recorded. The bottle of media was mixed by gentle shaking. The media was not filtered. This media was stored at 4° C., with any leftover media disposed of one month after the date the SingleQuots were added.
(§4) BEAS-2B Cell Splitting Protocol:
(§5) First, Trypsin was warmed to 37° C. in the water bath. The media was then warmed to room temperature by letting it sit in the tissue culture hood, but not as high as 37° C. The media was aspirated from flask(s) and the flask(s) were washed with PBS. From 1 to 1.5 mL of warm trypsin were added to each flask and incubated at 37° C. until cells came off the flask on their own (~8-10 minutes), with no vigorous tapping on the flask to detach the cells.
(§6) Media was added to each flask to a total volume of 8-10 mL per flask and transferred to 15 mL conical tube(s). The cells were spun down at 120 g for 5 minutes, level 5 brake. The cells can be spun down between 100 and 150 g. Next the media was aspirated and the cell pellet was resuspended in fresh media by pipetting up and down and flicking the tube side to side. Any clumps of cells that remained were allowed to settle to the bottom of the tube before the top suspension was transferred into another tube, leaving about 1 mL of media in the original tube. The 1 mL of media and cell clumps were mixed with a single channel p1000 pipette, and any remaining clumps were removed before adding the cells in suspension to the other tube. The suspension was mixed with a pipette, an aliquot was removed, and the cells were counted. The amount of cells/cm^2 desired was calculated and the required volume of cells was added to tissue culture flasks. For example, use of SingleQuots with ~6000 cells/cm^2 was appropriate for a three day incubation and ~3000 cells/cm^2 for a five day incubation. Optimal cell density differed depending on lot of SingleQuots. The flasks were incubated at 37° C. in 5% CO2.
(§7) Day One: Seeding BEAS-2B Cells in Collagen Plates:
(§8) Plate(s) were either seeded with 0.3% or 0% HSA. While the protocol was similar for both conditions any differences are noted herein below. […]

[3] = test system: NQO1 activation in BEAS-2B cells; test: BEAS-2B cellular MTT assay of NQO1 activation, 0.3% HSA; assay type: cell-based
Protocol: as §1, §2, §3, §4, §5, §6, §7, §8

[4] = Homo sapiens, serum free, read-out: BEAS EC50 (nM) serum free
[5] = Homo sapiens, BEAS+, read-out: BEAS+ EC50
[6] = serum free, read-out: BEAS EC50 (nM) serum free
[7] = Homo sapiens, Serum Free W, read-out: BEAS EC50 (nM) Serum Free W
[8] = Serum Free W, read-out: BEAS EC50 (nM) Serum Free W
[9] = BEAS+ W, read-out: BEAS+ W EC50
[10] = Homo sapiens, BEAS+ W, read-out: BEAS+ W EC50

Sequence of HIS-Keap1 full length / Biotin-Nrf2 (16-mer) (Q14145 whole entry): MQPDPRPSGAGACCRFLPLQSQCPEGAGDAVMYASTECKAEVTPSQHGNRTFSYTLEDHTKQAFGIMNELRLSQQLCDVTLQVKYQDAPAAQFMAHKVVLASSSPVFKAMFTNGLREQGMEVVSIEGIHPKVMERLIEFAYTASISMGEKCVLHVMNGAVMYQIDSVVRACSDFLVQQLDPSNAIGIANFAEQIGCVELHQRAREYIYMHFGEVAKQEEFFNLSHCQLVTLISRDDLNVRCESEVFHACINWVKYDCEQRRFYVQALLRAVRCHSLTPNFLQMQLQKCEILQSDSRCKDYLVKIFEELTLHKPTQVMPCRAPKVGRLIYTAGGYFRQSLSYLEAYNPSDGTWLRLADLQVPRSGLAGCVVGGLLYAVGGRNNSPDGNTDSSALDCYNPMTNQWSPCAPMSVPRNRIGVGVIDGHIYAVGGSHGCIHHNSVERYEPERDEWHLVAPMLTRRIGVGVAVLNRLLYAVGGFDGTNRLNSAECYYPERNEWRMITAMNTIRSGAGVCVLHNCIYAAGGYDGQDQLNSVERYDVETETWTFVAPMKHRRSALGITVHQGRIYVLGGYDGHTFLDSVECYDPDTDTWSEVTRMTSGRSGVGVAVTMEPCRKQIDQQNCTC

| Compound | EC50 [2, 4] [nM] | EC50 [3, 5] [nM] | EC50 [2, 6] | EC50 ([3]; BEAS+, read-out: BEAS+ EC50) | EC50 [2, 7] [nM] | EC50 [2, 8] [nM] | other results |
| --- | --- | --- | --- | --- | --- | --- | --- |
| Cc1ccc2cc1C(=O)N1CCc3ccc(cc3C1)[C@H]([C@@H](C)C(=O)O)c1ccc3c(nnn3CCCCCO2)c1C [Compound 411] | – | – | – | – | – | – | IC50 [1]: 5.2 nM and 10.1 nM |
| CC(C)(C(=O)O)C1c2ccc3c(c2)CN(CC3)C(=O)c2ccc(cc2)OCCCCCCn2nnc3cc1ccc32 (stereo not drawn) [Compound 287] | 3.1 | 112 | – | – | – | – | – |
| Cc1c2ccc3c1nnn3CCCCCCOc1ccc(c(F)c1)C(=O)N1CCc3ccc(cc3C1)[C@H]2[C@@H](C)C(=O)O [Compound 152] | > 10000 | > 10000 | – | – | – | – | – |
| Cc1ccc2cc1C(=O)N1CCc3ccc(cc3C1)C(CC(=O)O)c1ccc3c(c1)nnn3CCCCCO2 (stereo not drawn) [Compound 422] | – | – | – | – | – | – | IC50 [1]: 11.3 nM and 12.2 nM |
| CC(C)(C(=O)O)C1c2ccc3c(c2)CN(CC3)C(=O)c2ccc(cc2F)CCCCCCn2nnc3cc1ccc32 (stereo not drawn) [Compound 281] | – | – | – | – | – | – | IC50 [1]: 0.4 nM (2×) and 0.5 nM (2×) and 1.4 nM and 0.6 nM |
| Cc1c2cccc1C(=O)N1CCc3ccc(cc3C1)C(CC(=O)O)c1ccc3c(c1)nnn3CC/C=C/CO2 (stereo not drawn) [Compound 427] | – | – | – | – | – | – | IC50 [1]: 9.2 nM and 9.9 nM |
| Cc1c2ccc3c1nnn3CCCCCc1ccc(c3c1ccn3C)C(=O)N1CCc3ccc(cc3C1)[C@@H]2CC(=O)O [Compound 26] | – | – | – | – | – | – | IC50 [1]: 0.4 nM and 0.3 nM |
| Cc1c2ccc3c1nnn3CCCCCCOc1ccc(c(F)c1)C(=O)N1CCc3ccc(cc3C1)[C@H]2CC(=O)O [Compound 255] | 4.8 | 288 | 4 nM | 289 nM | – | – | – |
| COc1cc2ncc1[C@H](CC(=O)O)c1ccc3c(c1)CN(CC3)C(=O)c1ccc(cc1)CCCCCO2 [Compound 79] | – | – | – | – | 733 | 810 | EC50 [3, 9]: 2040 nM; EC50 [3, 10]: 1720 nM |
| O=C(O)CC1c2ccc3c(c2)CN(CC3)C(=O)c2ccc(cc2)OCCCCCn2nnc3cc1ccc32 (stereo not drawn) [Compound 334] | 547 | 898 | – | – | – | – | – |
| C[C@@H](C(=O)O)[C@H]1c2ccc(nc2)OCCCCCc2ccc(cc2)C(=O)N2CCc3ccc1cc3C2 [Compound 57] | – | – | – | – | – | 0.3 | EC50 [3, 9]: 0.6 nM |
| Cc1c2ccc3c1nnn3CCCCCCc1ccc(cc1)C(=O)N1CCc3ccc(cc3C1)[C@@H]2[C@@H](C)C(=O)O (racemic) [Compound 201] | – | – | 0.3 nM and 0.1 nM | 0.5 nM and 0.2 nM | – | – | – |
| Cc1c2ccc3c1nnn3CCCCCCOc1ccc(c(F)c1)C(=O)N1CCc3ccc(cc3C1)[C@H]2[C@H](C)C(=O)O [Compound 156] | 55.9 | 201 | 44.3 nM | 171 nM | – | – | – |
| Cc1cc2ncc1[C@@H]([C@H](C)C(=O)O)c1ccc3c(c1)CN(CC3)C(=O)c1ccc(cc1)CCCCCO2 [Compound 84] | – | – | – | – | 7.4 | 6.2 | EC50 [3, 9]: 30 nM; EC50 [3, 10]: 26.3 nM |
| Cc1c2ccc3c1nnn3CCCCCCOc1ccc(c(F)c1)C(=O)N1CCc3ccc(cc3C1)[C@@H]2[C@@H](C)C(=O)O [Compound 181] | 3.6 | 5.3 | 3.4 nM | 6.6 nM | – | – | – |
| Cc1c2ccc3c1nnn3CCCCCc1ccc(cc1)C(=O)N1CCc3ccc(cc3C1)[C@@H]2[C@H](C)C(=O)O [Compound 160] | 9.4 | 12.4 | 7 nM | 13.2 nM | – | – | – |
| Cc1c2ccc3c1nnn3CCCCCCc1ccc(cc1)C(=O)N1CCc3ccc(cc3C1)[C@@H]2[C@@H](C)C(=O)O [Compound 176] | 0.5 | 0.1 | 0.8 nM | 0.2 nM | – | – | – |
| Cc1cc2ccc1C(=O)N1CCc3ccc(cc3C1)[C@H](CC(=O)O)c1ccc3c(nnn3CCCCCC2)c1C [Compound 245] | 19.4 | 24.8 | 18.5 nM | 37.6 nM | – | – | – |

| Compound | EC50 [2, 4] [nM] | EC50 [3, 5] [nM] | EC50 [2, 6] | EC50 ([3]; BEAS+, read-out: BEAS+ EC50) | EC50 [2, 7] [nM] | EC50 [2, 8] [nM] | other results |
| --- | --- | --- | --- | --- | --- | --- | --- |
| Cc1c2ccc3c1nnn3CCCCCCOc1ccc(c(F)c1)C(=O)N1CCc3ccc(cc3C1)[C@@H]2[C@H](C)C(=O)O [Compound 177] | 43.7 | 107 | 36.1 nM | 140 nM | – | – | – |
| COc1cc2ccc1C(=O)N1CCc3ccc(cc3C1)[C@H](CC(=O)O)c1ccc3c(nnn3CCCCCC2)c1C [Compound 108] | – | – | – | – | 7.2 | 7.9 | – |
| Cc1cc2ncc1[C@H](C(C)(C)C(=O)O)c1ccc3c(c1)CN(CC3)C(=O)c1ccc(cc1)CCCCCO2 [Compound 53] | – | – | – | – | 8.7 | 12.3 | EC50 [3, 9]: 47.8 nM; EC50 [3, 10]: 38.5 nM |
| COc1cc2ncc1[C@@H](CC(=O)O)c1ccc3c(c1)CN(CC3)C(=O)c1ccc(cc1)CCCCCO2 [Compound 73] | – | – | – | – | 287 | 373 | EC50 [3, 9]: 590 nM; EC50 [3, 10]: 464 nM |
| Cc1c2ccc3c1nnn3CCCCCc1ccc(cc1)C(=O)N1CCc3ccc(cc3C1)[C@@H]2[C@H](C)C(=O)O [Compound 116] | – | – | – | – | 130 | 84.8 | EC50 [3, 9]: 252 nM; EC50 [3, 10]: 212 nM |
| COc1cc2ccc1C(=O)N1CCc3ccc(cc3C1)[C@@H](CC(=O)O)c1ccc3c(nnn3CCCCCC2)c1C [Compound 109] | – | – | – | – | 32.1 | 38 | EC50 [3, 9]: 100 nM; EC50 [3, 10]: 172 nM |
| Cc1cc2ncc1[C@@H]([C@@H](C)C(=O)O)c1ccc3c(c1)CN(CC3)C(=O)c1ccc(cc1)CCCCCO2 [Compound 82] | – | – | – | – | 594 | 641 | EC50 [3, 9]: 1760 nM; EC50 [3, 10]: 1960 nM |
| Cc1c2ccc3c1nnn3CCCCCCOc1ccc(c(F)c1)C(=O)N1CCc3ccc(cc3C1)[C@@H]2CC(=O)O [Compound 257] | 7.4 | 228 | 4.3 nM | 146 nM | – | – | – |
| Cc1cc2cnc1OCCCCCc1ccc(cc1)C(=O)N1CCc3ccc(cc3C1)[C@@H]2[C@@H](C)C(=O)O [Compound 72] | – | – | – | – | > 1000 | 1930 | EC50 [3, 9]: 7720 nM; EC50 [3, 10]: 9870 nM |
| Cc1cc2ccc1C(=O)N1CCc3ccc(cc3C1)C(CC(=O)O)c1ccc3c(nnn3CCCCCC2)c1C (stereo not drawn) [Compound 295] | 0.2 | 0.7 | – | – | – | – | – |
| Cc1cc2cnc1OCCCCCc1ccc(cc1)C(=O)N1CCc3ccc(cc3C1)[C@@H]2[C@H](C)C(=O)O [Compound 71] | – | – | – | – | 3.4 | 3.3 | EC50 [3, 9]: 13.2 nM; EC50 [3, 10]: 10.5 nM |
| Cc1cc2ncc1[C@@H](C(C)(C)C(=O)O)c1ccc3c(c1)CN(CC3)C(=O)c1ccc(cc1)CCCCCO2 [Compound 54] | – | – | – | – | 0.2 | 0.1 | – |
| Cc1cc2ccc1C(=O)N1CCc3ccc(cc3C1)C(CC(=O)O)c1ccc3c(c1)nnn3CCCCCO2 (stereo not drawn) [Compound 330] | 1070 | 862 | – | – | – | – | – |
| Cc1c2ccc3c1nnn3CCOCCCOc1ccc(c(F)c1)C(=O)N1CCc3ccc(cc3C1)C2CC(=O)O (stereo not drawn) [Compound 382] | 86.2 | 169 | 125 nM | 136 nM | – | – | – |
| Cc1c2ccc3c1nnn3CCCCCCc1ccc(cc1)C(=O)N1CCc3ccc(cc3C1)[C@@H]2[C@@H](C)C(=O)O [Compound 132] | – | – | – | – | > 1000 | – | EC50 [3, 10]: > 10000 nM |
| Cc1c2ccc3c1nnn3CCCCCCOc1ccc(c(F)c1)C(=O)N1CCc3ccc(cc3C1)C2CC(=O)O (stereo not drawn) [Compound 317] | 0.6 | 11.9 | – | – | – | – | – |
| O=C(O)CC1c2ccc3c(c2)CN(CC3)C(=O)c2ccc(cc2)OCCCCCCn2nnc3cc1ccc32 (stereo not drawn) [Compound 329] | 403 | 1230 | – | – | – | – | – |
| COc1cc2ccc1C(=O)N1CCc3ccc(cc3C1)C(CC(=O)O)c1ccc3c(nnn3CCCCCC2)c1C (stereo not drawn) [Compound 188] | 9.4 | 15.3 | 9.1 nM | 14.9 nM | – | – | – |
